Source: patent US20070134157A1, “Biological assay” (priority 2004, published 2007)

Key:
[1] = system: Sprague Dawley rats; assay: rat electrocardiogram/electrophysiology model, 5-min intravenous infusion paradigm; assay type: in vivo; conditions: readings immediately after the infusion, dose dependent
Method: (§1) Adult, male Sprague Dawley rats (240-280 g) were used for all studies. Rats were anesthetized with a mixture of ketamine:xylazine (85 mg/kg:5 mg/kg, ip). Catheters were placed in the left femoral artery and left femoral vein for the measurement of arterial pressure and the administration of test agents, respectively. In addition, a catheter was placed in the right femoral vein to administer a continuous infusion of ketamine:xylazine (45 mg/kg/hr:1.5 mg/kg/hr). A recording/stimulating catheter was then placed in the right jugular vein and advanced to the right atrium. Two electrodes were used to obtain bipolar atrial electrogram recording, and two were used for bipolar pacing of the atria/heart. The right carotid artery was then cannulated with a second recording/stimulating catheter, and the catheter was advance into the left ventricle. Two electrodes were used to obtain bipolar ventricular and His bundle electrograms, and two were used to pace the ventricle. Needle electrodes were placed subcutaneously in the right axillary and left inguinal areas to record lead II electrocardiogram. After equilibration and baseline readings, continuous infusion of test agent or vehicle was started and readings taken at 10 min and 20 min after start of infusion. Blood samples for plasma analysis were obtained from the femoral artery catheter at 10 and 20 min after the start of the infusion. Atrial effective (ARP), ventricular effective (VRP), and AV node effective (AVRP) refractory periods determined as follows: excitation threshold was determined for the atria and ventricles, then a conditioning train of stimuli (S1, 1 ms duration) at a cycle length of 150 ms was delivered at 1×-2× threshold followed by an extrastimulus (S2, 1 ms duration) at 2× threshold. The S1—S2 coupling interval was decreased by 5 ms, then 1 ms intervals to obtain refractory periods. ARP and VRP were defined as the shortest coupling interval that permitted propagation of an atrial or ventricular extrastimulus. AVRP was defined as the shortest coupling interval that permitted the propagation of the atria extrastimulus through the AV node to elicit ventricular depolarization. In addition, PR, AH (both a measure of AV nodal conduction) and HV (a measure of His-Purkinje conduction) intervals were measured during short (10-20 sec) trains of fixed S1—S1 interval pacing of 150 ms. QT interval was obtained during sinus rhythm. […] Am J Physiol. 1998;274:H747-51) were reported. Compounds were dissolved in either saline or N,N-dimethylformamide. Intravenous infusion of test agents or vehicles was normalized to body weight.
Two infusion paradigms were tested with two structurally distinct Kv1.5 antagonists, 3-[(dimethylamino)methyl]-6-methoxy-2-methyl-4-phenylisoquinolin-1(2H)-one hydrochloride (described in WO 02/24655 A1) and (2-isopropyl-5-methylcyclohexyl)(diphenyl)phosphine oxide (described in U.S. Pat. No. 6,214,809 B1). In an initial shorter duration infusion paradigm, a 5-min intravenous infusion of compound or vehicle was administered with electrocardiogram/electrophysiology readings determined immediately after the infusion.

[2] = system: Sprague Dawley rats; assay: rat electrocardiogram/electrophysiology model, 20-min continuous intravenous infusion; assay type: in vivo; conditions: for Percent change AH / Percent change ARP / Percent change AVRP / Percent change HR / Percent change HV / Percent change MAP / Percent change PR / Percent change QRS / Percent change QT / Percent change QTc / Percent change VRP: after a 20 min infusion, ± se
Method: as §1
In an extension of these studies to longer duration infusions, 3-[(dimethylamino)methyl]-6-methoxy-2-methyl-4-phenylisoquinolin-1(2H)-one hydrochloride and (2-isopropyl-5-methylcyclohexyl)(diphenyl)phosphine oxide were tested in a 20-min intravenous continuous infusion protocol. […] Plasma levels of 3-[(dimethylamino)methyl]-6-methoxy-2-methyl-4-phenylisoquinolin-1(2H)-one hydrochloride at 10 and 20 min after the start of a 0.1 mg/kg/min infusion were 3.4±0.2 μM and 2.8±0.3 μM, respectively.

[3] = plasma levels during continuous intravenous infusion; assay type: in vivo, rat; conditions: for concentration at 10 min / concentration at 20 min: male, Sprague Dawley, rat, plasma, intravenous; for concentration at 10 min: 10 min after start; for concentration at 20 min: 20 min after start
Method: as §1

[4] = 0.2 mg/kg/min, 10-min post infusion
[5] = 0.2 mg/kg/min, listed as (2-isopropyl-5-methylcyclohexyl)(diphenyl)phosphine oxide
[6] = 0.1 mg/kg/min, 20-min after start of infusion
[7] = 0.1 mg/kg/min, 10 min after start of infusion
[8] = 0.2 mg/kg/min, DMF vehicle, 20-min infusion
[9] = 0.2 mg/kg/min, saline vehicle, 10-min post infusion
[10] = 0.2 mg/kg/min, saline vehicle, 20 min after start of infusion
[11] = dose that caused a similar decrease in blood pressure as 0.03 mg/kg/min amlodipine
[12] = doses that caused similar blood pressure lowering as higher infusion rates of amlodipine
[13] = 20-min infusion, dose that produced a similar increase in VRP as the Kv1.5 antagonists

Compound: CC1CCC(C(C)C)C(P(=O)(c2ccccc2)c2ccccc2)C1 (centres unmarked) [compound 2, (2-isopropyl-5-methylcyclohexyl)(diphenyl)phosphine oxide]
- ARP [1]: increases
- QT interval [1]: increases
- VRP [1]: increases
- ARP [2, 4]: significant increases
- QT [2, 4]: significant increases
- VRP [2, 4]: significant increases
- Percent change AH ([2]; 0.2 mg/kg/min): −1 ± 1%
- Percent change ARP ([2]; 0.2 mg/kg/min): 26 ± 4%
- Percent change AVRP ([2]; 0.2 mg/kg/min): −1 ± 1%
- Percent change HR ([2]; 0.2 mg/kg/min): 8 ± 6%
- Percent change HV ([2]; 0.2 mg/kg/min): −8 ± 3%
- Percent change MAP ([2]; 0.2 mg/kg/min): 4 ± 4%
- Percent change PR ([2]; 0.2 mg/kg/min): −3 ± 1%
- Percent change QRS ([2]; 0.2 mg/kg/min): −3 ± 4%
- Percent change QT ([2]; 0.2 mg/kg/min): 27 ± 7%
- Percent change QTc ([2]; 0.2 mg/kg/min): 33 ± 8%
- Percent change VRP ([2]; 0.2 mg/kg/min): 22 ± 5%
- Percent change ARP [2, 5]: 24%
- Percent change QT [2, 5]: 27%
- Percent change QTc [2, 5]: 33%
- Percent change VRP [2, 5]: 22%

Compound: CCOC(=O)C1=C(COCCN)NC(C)=C(C(=O)OC)C1c1ccccc1Cl (centres unmarked) [amlodipine]
- decrease in blood pressure ([2]; 0.03 mg/kg/min for 20 min): −14%
- decrease in blood pressure ([2]; higher infusion rates): 30%
- increase in AV nodal conduction ([2]; higher infusion rates): 6%
- increase in AV nodal refractoriness ([2]; higher infusion rates): 7%

Compound: CCN(CC)CCNC(=O)c1ccc(N)cc1 [procainamide]
- HV interval ([2]; infusion at increasing rates): dose-dependent increases
- QRS interval ([2]; infusion at increasing rates): dose-dependent increases
- blood pressure ([2]; infusion at increasing rates): without having significant effects
- heart rate ([2]; infusion at increasing rates): without having significant effects

Compound: COc1ccc2c(=O)n(C)c(CN(C)C)c(-c3ccccc3)c2c1.Cl [compound 1, 3-[(dimethylamino)methyl]-6-methoxy-2-methyl-4-phenylisoquinolin-1(2H)-one hydrochloride]
- plasma levels, saline group versus DMF group ([3]; 0.2 mg/kg/min, dissolved in saline or DMF): similar
- concentration at 10 min ([3]; 0.1 mg/kg/min infusion): 3.4 ± 0.2 µM
- concentration at 20 min ([3]; 0.1 mg/kg/min infusion): 2.8 ± 0.3 µM
- concentration at 10 min ([3]; 0.2 mg/kg/min infusion): 6.3 ± 0.5 µM
- concentration at 20 min ([3]; 0.2 mg/kg/min infusion): 5.5 ± 0.2 µM
- ARP [1]: increases
- QT interval [1]: increases
- VRP [1]: increases
- ARP [2, 6]: no change
- increase in QT [2, 6]: 10%
- increase in QTc [2, 6]: 16%
- increase in VRP [2, 6]: 5%
- increase in heart rate [2, 6]: 5%
- ARP [2, 7]: no change
- QT [2, 7]: slight increase
- QTc [2, 7]: slight increase
- VRP [2, 7]: no change
- increase in ARP [2, 8]: 8%
- increase in QT [2, 8]: 11%
- increase in VRP [2, 8]: 13%
- Percent change AH ([2]; 0.2 mg/kg/min): 5 ± 1%
- Percent change ARP ([2]; 0.2 mg/kg/min): 5 ± 3%
- Percent change AVRP ([2]; 0.2 mg/kg/min): 4 ± 2%
- Percent change HR ([2]; 0.2 mg/kg/min): −1 ± 4%
- Percent change HV ([2]; 0.2 mg/kg/min): 0 ± 3%
- Percent change MAP ([2]; 0.2 mg/kg/min): 2 ± 2%
- Percent change PR ([2]; 0.2 mg/kg/min): 3 ± 1%
- Percent change QRS ([2]; 0.2 mg/kg/min): 0 ± 0%
- Percent change QT ([2]; 0.2 mg/kg/min): 12 ± 2%
- Percent change QTc ([2]; 0.2 mg/kg/min): 11 ± 2%
- Percent change VRP ([2]; 0.2 mg/kg/min): 13 ± 1%
- QT [2, 9]: significant increases
- VRP [2, 9]: significant increases
- change in RR interval [2, 10]: −17%
- heart rate [2, 10]: significant increases
- increase in ARP [2, 10]: 12%
- increase in QT interval [2, 10]: 14%
- increase in QTc [2, 10]: 24%
- increase in VRP [2, 10]: 11%

Compound: COc1ccc([C@@H]2Sc3ccccc3N(CCN(C)C)C(=O)[C@@H]2OC(C)=O)cc1 [diltiazem]
- decrease in heart rate [2, 11]: 12%
- increase in AV nodal conduction [2, 11]: 9%
- increase in AV nodal refractoriness [2, 11]: 10%
- blood pressure lowering [2, 12]: 23%
- increase in AV nodal conduction [2, 12]: 15%
- increase in AV nodal refractoriness [2, 12]: 19%

Compound: CS(=O)(=O)Nc1ccc2c(c1)C(O)CC1(CCN(C3CCc4cc(C#N)ccc4C3)CC1)O2.Cl [Ikr blocker, N-[1′-(6-cyano-1,2,3,4-tetrahydro-2(R)-naphthalenyl)-3,4-dihydro-4(R)-hydroxyspiro[2H-1-benzopyran-2,4′-piperidin]-6-YL]-,(+)-,monohydrochloride]
- plasma concentrations [3, 13]: ~0.6 µM
- plasma concentration ([3]; infusion of lower doses): 0.027 µM
- Percent change AH ([2]; 0.0001 mg/kg/min): 2 ± 1%
- Percent change ARP ([2]; 0.0001 mg/kg/min): 0 ± 2%
- Percent change AVRP ([2]; 0.0001 mg/kg/min): 1 ± 2%
- Percent change HR ([2]; 0.0001 mg/kg/min): −1 ± 5%
- Percent change HV ([2]; 0.0001 mg/kg/min): −1 ± 1%
- Percent change MAP ([2]; 0.0001 mg/kg/min): −7 ± 8%
- Percent change PR ([2]; 0.0001 mg/kg/min): 2 ± 2%
- Percent change QRS ([2]; 0.0001 mg/kg/min): 0 ± 1%
- Percent change QT ([2]; 0.0001 mg/kg/min): 1 ± 1%
- Percent change QTc ([2]; 0.0001 mg/kg/min): 0 ± 2%
- Percent change VRP ([2]; 0.0001 mg/kg/min): −2 ± 1%
- Percent change AH ([2]; 0.001 mg/kg/min): 9 ± 1%
- Percent change ARP ([2]; 0.001 mg/kg/min): 2 ± 4%
- Percent change AVRP ([2]; 0.001 mg/kg/min): 11 ± 1%
- Percent change HR ([2]; 0.001 mg/kg/min): 3 ± 4%
- Percent change HV ([2]; 0.001 mg/kg/min): −4 ± 3%
- Percent change MAP ([2]; 0.001 mg/kg/min): −1 ± 3%
- Percent change PR ([2]; 0.001 mg/kg/min): 8 ± 1%
- Percent change QRS ([2]; 0.001 mg/kg/min): 3 ± 1%
- Percent change QT ([2]; 0.001 mg/kg/min): −1 ± 1%
- Percent change QTc ([2]; 0.001 mg/kg/min): 1 ± 1%
- Percent change VRP ([2]; 0.001 mg/kg/min): 0 ± 1%
- Percent change AH ([2]; 0.03 mg/kg/min): 13 ± 4%
- Percent change ARP ([2]; 0.03 mg/kg/min): 4 ± 4%
- Percent change AVRP ([2]; 0.03 mg/kg/min): 21 ± 3%
- Percent change HR ([2]; 0.03 mg/kg/min): 22 ± 5%
- Percent change HV ([2]; 0.03 mg/kg/min): 4 ± 3%
- Percent change MAP ([2]; 0.03 mg/kg/min): 18 ± 5%
- Percent change PR ([2]; 0.03 mg/kg/min): 9 ± 4%
- Percent change QRS ([2]; 0.03 mg/kg/min): 0 ± 1%
- Percent change QT ([2]; 0.03 mg/kg/min): 11 ± 3%
- Percent change QTc ([2]; 0.03 mg/kg/min): 23 ± 5%
- Percent change VRP ([2]; 0.03 mg/kg/min): 7 ± 2%
- increase in AH interval (delay in AV node conduction) [2, 13]: ~13%
- increase in AVRP [2, 13]: 21%
- increase in HR [2, 13]: 22%
- increase in MAP [2, 13]: 18%
- ARP ([2]; infusion of lower doses): no change
- AVRP ([2]; infusion of lower doses): significant changes
- VRP ([2]; infusion of lower doses): no change
